Test results published in PubChem BioAssay AID256 (DTP/NCI, 2004).
Toxic doses and inconclusive results are not listed.

Tested on: CD2F1 mice, L1210 leukemia ip, survival T/C
Assay: NCI In Vivo Anticancer Drug Screen. Data for tumor model L1210 Leukemia (intraperitoneal) in CD2F1 (CDF1) mice
Conditions: higher = longer survival
In short: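 Transplantable tumor in mice; compound-treated vs vehicle-treated groups. Read-out = treated/control ratio of the measured endpoint.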

[1] = endpoint: mean survival time, dose: 100.0 mg/kg/injection, schedule: Q04DX003 (ip), vehicle: saline with Tween-80
[2] = endpoint: mean survival time, dose: 100.0 mg/kg/injection, schedule: Q01DX009 (ip), vehicle: saline with Tween-80
[3] = endpoint: mean survival time, dose: 200.0 mg/kg/injection, schedule: Q01DX009 (ip), vehicle: saline with Tween-80
[4] = endpoint: mean survival time, dose: 400.0 mg/kg/injection, schedule: Q01DX009 (ip), vehicle: saline with Tween-80

For `[Cl][Pt+2][Cl].[NH-]CC1(C[NH-])CCCC1`, the T/C (endpoint: mean survival time, dose: 1.56 mg/kg/injection, schedule: Q04DX003 (ip), vehicle: saline) was 122 % of control, the T/C (endpoint: mean survival time, dose: 3.12 mg/kg/injection, schedule: Q04DX003 (ip), vehicle: saline) was 152 % of control and the T/C (endpoint: mean survival time, dose: 6.25 mg/kg/injection, schedule: Q04DX003 (ip), vehicle: saline) was 197 % of control. For the same molecule, the T/C (endpoint: mean survival time, dose: 12.5 mg/kg/injection, schedule: Q04DX003 (ip), vehicle: saline with Tween-80) was 160 % of control, the T/C (endpoint: mean survival time, dose: 12.5 mg/kg/injection, schedule: Q04DX003 (ip), vehicle: saline) was 260 % of control and the T/C (endpoint: mean survival time, dose: 25.0 mg/kg/injection, schedule: Q04DX003 (ip), vehicle: saline with Tween-80) was 98 % of control. For the same molecule, the T/C (endpoint: mean survival time, dose: 25.0 mg/kg/injection, schedule: Q04DX003 (ip), vehicle: saline) was 114 % of control, the T/C (endpoint: median survival time, dose: 1.0 mg/kg/injection, schedule: Q01DX009 (ip), vehicle: saline) was 232 % of control and the T/C (endpoint: median survival time, dose: 2.0 mg/kg/injection, schedule: Q01DX009 (ip), vehicle: saline) was 175 % of control. For the same molecule, the T/C (endpoint: median survival time, dose: 4.0 mg/kg/injection, schedule: Q01DX001 (ip), vehicle: saline) was 201 % of control, the T/C (endpoint: median survival time, dose: 4.0 mg/kg/injection, schedule: Q01DX009 (ip), vehicle: saline) was 101 % of control and the T/C (endpoint: median survival time, dose: 8.0 mg/kg/injection, schedule: Q01DX001 (ip), vehicle: saline) was 200 % of control. The T/C (endpoint: median survival time, dose: 8.0 mg/kg/injection, schedule: Q01DX009 (ip), vehicle: saline) was 97 % of control, the T/C (endpoint: median survival time, dose: 12.0 mg/kg/injection, schedule: Q01DX001 (ip), vehicle: saline) was 104 % of control and the T/C (endpoint: median survival time, dose: 18.0 mg/kg/injection, schedule: Q01DX001 (ip), vehicle: saline) was 97 % of control.

`CCOC(=O)c1ccc(NC(=O)c2ccc(OCCOc3ccc(C(C)(C)CC(C)(C)C)cc3)c(NC(=O)CC(=O)c3cccc([N+](=O)[O-])c3)c2)cc1` was tested, and the T/C (endpoint: mean survival time, dose: 100.0 mg/kg/injection, schedule: Q01DX009 (ip), vehicle: Klucel (hydroxypropylcellulose) (HPC)) was 92 % of control, the T/C (endpoint: mean survival time, dose: 100.0 mg/kg/injection, schedule: Q04DX003 (ip), vehicle: Klucel (hydroxypropylcellulose) (HPC)) was 111 % of control and the T/C (endpoint: mean survival time, dose: 200.0 mg/kg/injection, schedule: Q01DX009 (ip), vehicle: Klucel (hydroxypropylcellulose) (HPC)) was 92 % of control. The T/C (endpoint: mean survival time, dose: 200.0 mg/kg/injection, schedule: Q04DX003 (ip), vehicle: Klucel (hydroxypropylcellulose) (HPC)) was 100 % of control, the T/C (endpoint: mean survival time, dose: 400.0 mg/kg/injection, schedule: Q01DX009 (ip), vehicle: Klucel (hydroxypropylcellulose) (HPC)) was 103 % of control and the T/C (endpoint: mean survival time, dose: 400.0 mg/kg/injection, schedule: Q04DX003 (ip), vehicle: Klucel (hydroxypropylcellulose) (HPC)) was 102 % of control.

With `Cn1cc(C(O)CN2CCCCC2)c2ccccc21` (centres undefined) the T/C [1] was 93 % of control.

`C=CCC(C)(C#N)C1C=CCC1` (centres undefined) was tested, and the T/C [2] was 105 % of control, the T/C [1] was 102 % of control and the T/C [3] was 102 % of control. The T/C (endpoint: mean survival time, dose: 200.0 mg/kg/injection, schedule: Q04DX003 (ip), vehicle: saline with Tween-80) was 100 % of control, the T/C [4] was 103 % of control and the T/C (endpoint: mean survival time, dose: 400.0 mg/kg/injection, schedule: Q04DX003 (ip), vehicle: saline with Tween-80) was 93 % of control.

`O=Cc1ccc(C(=O)O)cc1` was tested, and the T/C [2] was 95 % of control, the T/C [3] was 98 % of control and the T/C [4] was 101 % of control.

For `COc1ccc(C(=C(CC(=O)O)C(=O)O)c2ccc(OC)cc2)cc1`, the T/C (endpoint: mean survival time, dose: 100.0 mg/kg/injection, schedule: Q01DX001 (ip), vehicle: saline) was 98 % of control, the T/C (endpoint: mean survival time, dose: 200.0 mg/kg/injection, schedule: Q01DX001 (ip), vehicle: saline) was 98 % of control and the T/C (endpoint: mean survival time, dose: 400.0 mg/kg/injection, schedule: Q01DX001 (ip), vehicle: saline) was 101 % of control.

In the case of `O=C(CCCN1CCC(O)CC1)c1ccccc1`, the T/C (endpoint: mean survival time, dose: 50.0 mg/kg/injection, schedule: Q01DX009 (ip), vehicle: saline with Tween-80) is reported as 88 % of control and the T/C [2] is reported as 94 % of control.

For `CC(=O)Nc1ccc(/C=C2\N=C(c3cccc([N+](=O)[O-])c3)OC2=O)cc1`, the T/C (endpoint: mean survival time, dose: 100.0 mg/kg/injection, schedule: Q04DX002 (ip), vehicle: saline with Tween-80) was 100 % of control, the T/C (endpoint: mean survival time, dose: 200.0 mg/kg/injection, schedule: Q04DX002 (ip), vehicle: saline with Tween-80) was 100 % of control and the T/C (endpoint: mean survival time, dose: 400.0 mg/kg/injection, schedule: Q04DX002 (ip), vehicle: saline with Tween-80) was 91 % of control.

For `Cc1cc(C(O)(C(=O)O)c2ccccc2)c(C)c(C)c1C` (centres undefined), the T/C (endpoint: mean survival time, dose: 75.0 mg/kg/injection, schedule: Q01DX001 (ip), vehicle: other) was 90 % of control, the T/C (endpoint: mean survival time, dose: 150.0 mg/kg/injection, schedule: Q01DX001 (ip), vehicle: other) was 94 % of control and the T/C (endpoint: mean survival time, dose: 300.0 mg/kg/injection, schedule: Q01DX001 (ip), vehicle: other) was 102 % of control.

With `CC(=O)OC1C=CC(OC(C)=O)O1` (centres undefined) the T/C (endpoint: mean survival time, dose: 0.75 mg/kg/injection, schedule: Q01DX009 (ip), vehicle: saline with Tween-80) was 103 % of control, the T/C (endpoint: mean survival time, dose: 1.5 mg/kg/injection, schedule: Q01DX009 (ip), vehicle: saline with Tween-80) was 101 % of control and the T/C (endpoint: mean survival time, dose: 1.88 mg/kg/injection, schedule: Q04DX003 (ip), vehicle: saline) was 96 % of control. For the same molecule, the T/C (endpoint: mean survival time, dose: 3.0 mg/kg/injection, schedule: Q01DX009 (ip), vehicle: saline with Tween-80) was 95 % of control, the T/C (endpoint: mean survival time, dose: 3.75 mg/kg/injection, schedule: Q04DX003 (ip), vehicle: saline) was 98 % of control and the T/C (endpoint: mean survival time, dose: 7.5 mg/kg/injection, schedule: Q01DX001 (ip), vehicle: saline) was 106 % of control. The T/C (endpoint: mean survival time, dose: 7.5 mg/kg/injection, schedule: Q04DX003 (ip), vehicle: saline) was 102 % of control.
